Data as given in patent publication US20090221715A1, “NOVEL POLYMORPH OF ATOVAQUONE” (priority 2008, published 2009).

Assay: Bulk density and tapped density comparison of atovaquone crystalline forms
Type: physicochemical
Conditions: powder of the crystalline form

Row | Structure (SMILES) | Bulk density | Tapped density
1 | O=C1C(O)=C([C@H]2CC[C@H](c3ccc(Cl)cc3)CC2)C(=O)c2ccccc21 [Form I (ATO-8094P), trans-2-[4-(4-chlorophenyl)cyclohexyl]-3-hydroxy-1,4-naphthoquinone] | 0.4802 g/mL | 0.6402 g/mL
2 | O=C1C(O)=C([C@H]2CC[C@H](c3ccc(Cl)cc3)CC2)C(=O)c2ccccc21 [Form IPCA-ATO (ATO-8099), trans-2-[4-(4-chlorophenyl)cyclohexyl]-3-hydroxy-1,4-naphthoquinone] | 0.2353 g/mL | 0.3801 g/mL
3 | O=C1C(O)=C([C@H]2CC[C@H](c3ccc(Cl)cc3)CC2)C(=O)c2ccccc21 [Form III (ATO-8110), trans-2-[4-(4-chlorophenyl)cyclohexyl]-3-hydroxy-1,4-naphthoquinone] | 0.2975 g/mL | 0.4010 g/mL
